The values that follow come from ChEMBL document CHEMBL5724914, “Linking interpersonal differences in gut microbiota composition and drug biotransformation activity” (2024).

Series [1] can be described thus: The drug is tested on Z-011 corresponding to mouse gut metagenome with ENA study accession number: PRJEB37062 and ENA sample accession number: ERS12561811 for biotransformation under anaerobic condition. The drug concentrations were measured over 9 timepoints collected between 0 and 24 hours of incubation by liquid-chromatography-coupled mass spectrometry (LC–MS). To be noted: 2 µM.

Series [2] in a line: The drug is tested on Z-022 corresponding to mouse gut metagenome with ENA study accession number: PRJEB37062 and ENA sample accession number: ERS12561821 for biotransformation under anaerobic condition. The drug concentrations were measured over 9 timepoints collected between 0 and 24 hours of incubation by liquid-chromatography-coupled mass spectrometry (LC–MS). Particulars: 2 µM.

A short description of series [3]: The drug is tested on WLS-039 corresponding to human gut metagenome with ENA study accession number: PRJEB37062 and ENA sample accession number: ERS12561746 for biotransformation under anaerobic condition. The drug concentrations were measured over 9 timepoints collected between 0 and 24 hours of incubation by liquid-chromatography-coupled mass spectrometry (LC–MS). Particulars: 2 µM.

A short description of series [4]: The drug is tested on Z-016 corresponding to mouse gut metagenome with ENA study accession number: PRJEB37062 and ENA sample accession number: ERS12561815 for biotransformation under anaerobic condition. The drug concentrations were measured over 9 timepoints collected between 0 and 24 hours of incubation by liquid-chromatography-coupled mass spectrometry (LC–MS). Particulars: 2 µM.

A short description of series [5]: The drug is tested on Z-004 corresponding to metagenome with ENA study accession number: PRJEB37062 and ENA sample accession number: ERS12561804 for biotransformation under anaerobic condition. The drug concentrations were measured over 9 timepoints collected between 0 and 24 hours of incubation by liquid-chromatography-coupled mass spectrometry (LC–MS). To be noted: 2 µM.

The conditions of series [6]: human gut metagenome, 24 h, 2 µM.
The conditions of series [7]: human gut metagenome, 24 h, 2 µM. This is another data set of the same source.
For series [8] the following is noted: human gut metagenome, 24 h, 2 µM. The source holds these as a separate data set.
The conditions of series [9]: human gut metagenome, 24 h, 2 µM. This is another data set of the same source.

Where a SMILES comes first, the peptide text is derived from it. [ ]: non-standard residue; d: D form. pGlu = O=C1CC[C@@H](C(=O)O)N1; Thz = O=C(O)[C@@H]1CSCN1
Also: call rule not given here.

For the compound `CCCc1nc2c(C)cc(-c3nc4ccccc4n3C)cc2n1Cc1ccc(-c2ccccc2C(=O)O)cc1`, the “Bacterial Biotransformation” value is “Compound metabolized” in series [1]; “Compound metabolized” in series [2]; “Compound metabolized” in series [3]; “Compound metabolized” in [4]; “Compound metabolized” in series [5]; “Compound NOT metabolized” in series [6]. The “Bacterial Biotransformation” value in [7] was “Compound metabolized”; in [8], “Compound metabolized”; in [9], “Compound NOT metabolized”.

On to `CCCCC(=O)N(Cc1ccc(-c2ccccc2-c2nnn[nH]2)cc1)[C@H](C(=O)O)C(C)C`, for which the “Bacterial Biotransformation” value in series [1] is recorded as “Compound NOT metabolized”; in series [2] it was “Compound NOT metabolized”; in series [3], “Compound metabolized”; in series [4], “Compound NOT metabolized”; in series [5] it was “Compound NOT metabolized”; in series [6], “Compound metabolized”. The “Bacterial Biotransformation” value is reported as “Compound metabolized” in series [7], “Compound metabolized” in series [8] and “Compound NOT metabolized” in [9].

With `Cc1cc2c(cc1S(N)(=O)=O)S(=O)(=O)CCC2`, the “Bacterial Biotransformation” value in series [1], in series [2], in series [3], in series [4], in series [5] and in series [6] was “Compound NOT metabolized” in each case. Further, the “Bacterial Biotransformation” value in series [7], in [8] and in [9] was “Compound NOT metabolized” in each case.

In the case of `CN1CCc2c(c3ccccc3n2Cc2ccccc2)C1.CN1CCc2c(c3ccccc3n2Cc2ccccc2)C1.O=S(=O)(O)c1cccc2c(S(=O)(=O)O)cccc12`, the “Bacterial Biotransformation” value in series [1] is “Compound NOT metabolized”; in [2], “Compound NOT metabolized”; in series [3], “Compound metabolized”; in series [4] it was “Compound NOT metabolized”; in series [5], “Compound NOT metabolized”; in [6], “Compound NOT metabolized”. In addition, the “Bacterial Biotransformation” value is recorded as “Compound NOT metabolized” in series [7], “Compound metabolized” in series [8] and “Compound NOT metabolized” in series [9].

For the compound `CCC(COC(=O)c1cc(OC)c(OC)c(OC)c1)(c1ccccc1)N(C)C.O=C(O)/C=C\C(=O)O` (stereo unspecified), the “Bacterial Biotransformation” value in [1] is recorded as “Compound NOT metabolized”; in series [2] it was “Compound metabolized”; in series [3], “Compound NOT metabolized”; in [4] it was “Compound NOT metabolized”; in [5], “Compound NOT metabolized”; in series [6] it was “Compound NOT metabolized”. Besides, the “Bacterial Biotransformation” value in series [7], in series [8] and in series [9] was “Compound NOT metabolized” each time.

On to `COc1ccc(CCN(C)CCCC(C#N)(c2ccc(OC)c(OC)c2)C(C)C)cc1OC` (stereo unspecified), for which the “Bacterial Biotransformation” value in [1] is “Compound NOT metabolized”; in series [2], “Compound NOT metabolized”; in series [3], “Compound metabolized”; in series [4] it was “Compound NOT metabolized”; in series [5], “Compound NOT metabolized”; in series [6], “Compound NOT metabolized”. Also, the “Bacterial Biotransformation” value in series [7] is “Compound metabolized”; in [8] it was “Compound metabolized”; in [9] it was “Compound NOT metabolized”.

As for `CN1CC(=O)N2[C@H](c3ccc4c(c3)OCO4)c3[nH]c4ccccc4c3C[C@@H]2C1=O`, the “Bacterial Biotransformation” value is on record as “Compound NOT metabolized” in [1]; “Compound metabolized” in series [2]; “Compound NOT metabolized” in [3]; “Compound metabolized” in series [4]; “Compound metabolized” in series [5]; “Compound NOT metabolized” in series [6]. The “Bacterial Biotransformation” value in series [7], in [8] and in [9] was “Compound metabolized” each time.

With `COc1cc2nc(N(C)CCCNC(=O)C3CCCO3)nc(N)c2cc1OC` (stereo unspecified) [ALFUZOSIN], the “Bacterial Biotransformation” value is “Compound metabolized” in series [1]; “Compound metabolized” in series [2]; “Compound NOT metabolized” in [3]; “Compound NOT metabolized” in series [4]; “Compound NOT metabolized” in [5]; “Compound NOT metabolized” in series [6]. Further, the “Bacterial Biotransformation” value is “Compound metabolized” in series [7], “Compound metabolized” in [8] and “Compound NOT metabolized” in [9].

For `NC12CC3CC(CC(C3)C1)C2` [AMANTADINE], the “Bacterial Biotransformation” value in series [1] was “Compound NOT metabolized”; in series [2], “Compound metabolized”; in series [3], “Compound NOT metabolized”; in series [4] it was “Compound NOT metabolized”; in series [5], “Compound NOT metabolized”; in [6] it was “Compound NOT metabolized”. The “Bacterial Biotransformation” value in [7], in series [8] and in series [9] was “Compound NOT metabolized” throughout.

With `CCCC1O[C@@H]2C[C@H]3[C@@H]4CCC5=CC(=O)C=C[C@]5(C)[C@H]4[C@@H](O)C[C@]3(C)[C@]2(C(=O)CO)O1` (stereo partly specified) [BUDESONIDE], the “Bacterial Biotransformation” value is reported as “Compound metabolized” in series [1]; “Compound NOT metabolized” in [2]; “Compound metabolized” in [3]; “Compound NOT metabolized” in series [5]; “Compound metabolized” in series [6]; “Compound metabolized” in [7]. In addition, the figures for the “Bacterial Biotransformation” value in series [8] and in series [9] were “Compound metabolized” and “Compound NOT metabolized”, respectively.

With `CCCCCCOC(=O)/N=C(/N)c1ccc(NCc2nc3cc(C(=O)N(CCC(=O)OCC)c4ccccn4)ccc3n2C)cc1.CS(=O)(=O)O` [DABIGATRAN ETEXILATE MESYLATE], the “Bacterial Biotransformation” value was “Compound NOT metabolized” in [1]; “Compound NOT metabolized” in series [2]; “Compound NOT metabolized” in series [4]; “Compound NOT metabolized” in series [5]; “Compound metabolized” in series [7]; “Compound NOT metabolized” in series [8].

For `O=c1[nH]c2ccccc2n1CCCN1CCC(n2c(=O)[nH]c3cc(Cl)ccc32)CC1` [DOMPERIDONE], the “Bacterial Biotransformation” value in [1], in series [2], in series [3], in series [4], in [5] and in series [7] was “Compound NOT metabolized” throughout. For the same compound, in series [8], the “Bacterial Biotransformation” value is reported as “Compound NOT metabolized”.

Regarding `c1ccc([C@H]2CN3CCSC3=N2)cc1` [LEVAMISOLE], the “Bacterial Biotransformation” value in series [1] is listed as “Compound NOT metabolized”; in [2] it was “Compound metabolized”; in series [3] it was “Compound metabolized”; in [4], “Compound NOT metabolized”; in [5] it was “Compound NOT metabolized”; in series [6] it was “Compound metabolized”. In addition, the “Bacterial Biotransformation” value in series [8] and in series [9] was “Compound metabolized” in each case.

Turning to `C#C[C@]1(O)CC[C@H]2[C@@H]3CCC4=CC(=O)CC[C@@H]4[C@H]3CC[C@@]21CC` [LEVONORGESTREL], the “Bacterial Biotransformation” value is “Compound metabolized” in series [1]; “Compound metabolized” in series [2]; “Compound metabolized” in series [3]; “Compound metabolized” in series [5]; “Compound NOT metabolized” in [6]; “Compound metabolized” in [7]. Also, the “Bacterial Biotransformation” value in series [8] and in series [9] was “Compound metabolized” in each case.

For the compound `O=C1CC[C@@H](C(=O)N2CSC[C@H]2C(=O)O)N1` [PIDOTIMOD] ([pGlu]-[Thz]-OH), the “Bacterial Biotransformation” value in [1] is “Compound NOT metabolized”; in series [2], “Compound metabolized”; in series [4] it was “Compound NOT metabolized”; in series [5], “Compound NOT metabolized”; in series [6], “Compound NOT metabolized”; in series [7] it was “Compound NOT metabolized”. The “Bacterial Biotransformation” value in [8] and in [9] was “Compound NOT metabolized” each time.
